In patent publication US20080275111A1, “Novel Use of Lignan Compounds” (priority 2005, published 2008):

Legend:
iNOS = iNOS expression in LPS-activated microglia (Western blotting); assay type: cell-based, mouse; conditions: 1 μg/ml LPS, compound 2.5 and 10 μM, 16 or 24 hours
Excerpt: (§1) In Example <6-2>, it was observed that the NO production induced by LPS in the tissue-cultured microglia of mouse was inhibited by the lignan compound of the present invention. NO is produced by iNOS enzyme of which expression is induced by activation of microglia. Therefore, the correlation between the reduction of NO production and inhibition of iNOS expression was examined. Additionally, a change in the amount of a protein COX-2 participating in the production of other inflammation-mediating materials was examined. For Western blotting analysis, tissue-cultured microglia was cultured in a 60 mm cell culture dish up to a concentration of 7.5×10^5 cells/ml. After 1 day of cultivation, the activation of microglia was induced by 1 μg/ml of LPS (Sigma) treatment. Simultaneously, the microglia was also treated with 2.5 and 10 μM of the lignan compound of the present invention together with LPS, and incubated for 16 or 24 hours. The incubated cell was washed with cold PBS 2 times, and then dissolved in a cold lysis buffer (1% SDS, 1 mM Na3VO4, 10 mM NaF, 10 mM Tris-Cl, pH 7.4 containing 1× protease inhibitors cocktail). […] Then, the amount of proteins was quantified according to BCA method. […]
(§2) NaCl containing 0.1% Tween 20) 3 times. […] Again, the membrane was then washed with TBS-T solution 3 times, and each band on the membrane was analyzed using ECL system (Sigma).

COX-2 = COX-2 expression in LPS-activated microglia (Western blotting); assay type: cell-based, mouse; conditions: 1 μg/ml LPS, compound 2.5 and 10 μM, 16 or 24 hours
Excerpt: as §1, §2

[1] = Transmission test to the brain (brain uptake clearance, LC/MS); assay type: in vivo; conditions: male SD rat, 1 mg/kg intravenous
Protocol: PE50 tubes are independently inserted into the femoral vein and femoral artery of a 250 g male SD rat, and syringes individually containing physiological saline solution and heparin (25 I.U.) are connected to tubes, respectively. The macelignan isolated and purified in Example 1 was dissolved in DMSO, and intravenously administered into the rat in the amount of 1 mg/kg. 400 μl of the blood samples were collected from the artery at 0.5, 1, 1.5 and 2 minutes after administration. After last sampling, the head of the rat was rapidly cut, and the brain tissue was extracted and slightly washed with physiological saline solution.
The blood sample prepared in the Example <7-1> was centrifuged at 3,000 rpm for 5 minutes to obtain 100 μl of blood plasma. 500 μl of ethylacetate was added into the blood plasma and the mixture was agitated with a vortex mixer for 10 minutes. Then, the mixture was centrifuged at 3,000 rpm for 5 minutes to obtain 400 μl of the supernatant. […]
The weight of the brain tissue sample prepared in the Example <7-1> was measured, and then saline solution corresponding to the weight of 2 times higher than that of the brain tissue was added into the brain tissue and the mixture was homogenized. […]
The blood sample and brain tissue sample treated in the Example <7-2> were introduced into the LC/MS system, and then the LC/MS analysis was performed according to the method of the Example <7-3> and the area of a macelignan peak was obtained on the chromatograph. The concentration of macelignan was calculated by using the area of the macelignan peak through the standard curve prepared in the Example <7-3>.
In a time-concentration graph of macelignan obtained in the blood sample through the Example <7-4>, AUC0^t (Area Under Curve: AUC) from 0 to the last sample time “tlast”, was obtained with a trapezoidal method (Schaum's Outline of Mathematica, MaGraw-Hill, 2000). Additionally, the amount(Xb) of macelignan was calculated using the concentration of the brain tissue sample. AUC of macelignan may be calculated using the mathematical equation 1. […]

## COc1cc(C[C@H](C)[C@H](C)Cc2ccc3c(c2)OCO3)ccc1O [macelignan, (8R,8′S)-7-(3,4-methylenedioxyphenyl)-7′-(4-hydroxy-3-methoxyphenyl)-8,8′-dimethylbutane]
iNOS
  expression of iNOS induced by LPS: inhibited in a concentration dependent manner
COX-2
  expression of COX-2 induced by LPS: inhibited in a concentration dependent manner
[1]; brain and plasma, Xb/AUC, read-out: CLuptake (brain uptake clearance)
  clearance: 0.203 ± 0.039 mL/min
[1]; brain taken after the 2 minute sample
  Xb (amount of macelignan in the brain): 7.90 ± 1.52 µg
[1]; plasma 0 to 2 minutes, trapezoidal method
  AUC: 648 ng·h/mL
